{"source": "patent US8563578B2", "about": "“Antitumor properties of NO modified protease inhibitors” (Onconox APS, priority 2008, dated 2013)", "key": {"CD1 mice": {"system": "CD1 mice", "conditions": "CD1, mouse, in vivo, ip", "procedure": "To define the acute toxicity of Sag and Sag NO2, the test compound was administered i.p. to CD1 mice at the single doses of 250, 500, 1000 and 1500 mg/Kg. Control groups were treated i.p. with vehicle (pure DMSO; 100 μl/mouse). Each group consisted of 10 mice. Mortality was evaluated every hour for the first 4 hours and then every 10 hours until 14 days after dosing."}, "C6 cells [1]": {"system": "C6 cells", "assay": "Cyclin D3 and p53 expression (cELISA, immunocytochemistry, Western blot), C6", "assay_type": "cell-based, rat", "conditions": "18.8 μM, 24 h (Western blot 4 h)", "description": "(§1) A slightly modified method for cell-based ELISA (cELISA) by Versteeg (Versteed et al., 2000) was used to measure the expression of galactocerebroside, glial fibrilar acidic protein (GFAP), myelin basic protein (MBP), cyclin D3, p53 and p-AKT. Briefly, at the end of cultivation period cells were fixed in 4% paraformaldehyde, endogenous peroxydase was quenched with 1% H2O2 in PBS containing 0.1% Triton X-100 (PBST), and unspecific binding of antibodies blocked with PBST solution containing 10% FCS. […] The absorbance at 450 nm was measured in an automated microplate reader 15 min after incubation with peroxydase substrate TMB and subsequently to addition of 0.1 M HCl. To facilitate comparison between treatments, the obtained absorbances were corrected for the cell number that was determined by crystal violet staining, as described in the original protocol.\n(§2) The detection of expression of cyclin D3 and p53 expression was performed by the immunocytochemical procedure as previously described (Mijatovic et al, 2005). The cells were cultivated in glass chamber-slides (3×10^4 cells/well) and cyclin D3 and p53 expression were detected with specific antibodies against cyclin D3 (1:1000, Santa Cruz Biotechnology, Santa Cruz, Calif.) and p53 (1:500, Santa Cruz Biotechnology, Santa Cruz, Calif.). […]"}, "C6 cells [2]": {"system": "C6 cells", "assay": "Cell proliferation by CFSE staining, C6", "assay_type": "cell-based, rat", "conditions": "18.8 μM, 48 h, about 90% of control cells divided", "procedure": "Rate of cell proliferation was verified by flow cytometric analysis of cells labelled with CFSE (Kang et al. 2005). CFSE dye is stable in cytoplasm more than 15 generations and the intensity of fluorescence decline after each division. Briefly, detached cells were stained with 1.5 μM CFSE for the 15 min at 37° C., washed 2 times, seeded in 6-well plates at 2×10^5 cells/well and then exposed to drugs. After 24 and 48 h of cultivation cells were trypsinized and washed 2 times. Finally, the cells were resuspended in PBS and analyzed by flow cytometry. Green fluorescence emission was measured with a FACSCalibur (BD, Heidelberg, Germany) and analyzed using CellQuest software.\nFIG. 4. […] Results are calculated as indicated in materials and methods and presented as mean±SD from representative of three independent experiment (*p <0.05). […] After 24 h of cultivation without or with drugs, cells were stained with AO orange (B) or PI (C) and analyzed by flow cytometry. The data are presented as mean±SD from three independent experiments. *p<0.05, refers to untreated cultures. […] Cells were incubated with 18.8 μM of Sag or Saq-NO2 for 24 h. After that, the drugs were either removed or not from the cells and incubated for additional 24 h. Cell viability was determined by CV test after 24 and 48 h of incubation (right panels). […]"}, "B16 cells": {"system": "B16 cells", "assay": "Cyclin D3 and p53 expression (cELISA, immunocytochemistry, Western blot), B16", "assay_type": "cell-based, mouse", "conditions": "18.8 μM, 24 h (Western blot 4 h)", "description": "as §1, §2"}}, "note": "Read-outs that look alike come from different tables or passages of the source."}
{"smiles": "CC(C)(C)NC(=O)[C@@H]1C[C@@H]2CCCC[C@@H]2CN1C[C@@H](O)[C@H](Cc1ccccc1)NC(=O)[C@H](CC(N)=O)NC(=O)c1ccc2ccccc2n1", "note": "[Saq, Saquinavir, reference compound]", "values": [{"measurement": "lethality", "setting": "CD1 mice; 500 mg/kg, 24 h", "value": 20, "unit": "%"}, {"measurement": "lethality", "setting": "CD1 mice; 1000 mg/kg, 14 days", "value": 30, "unit": "%"}, {"measurement": "lethality", "setting": "CD1 mice; 14 days", "value": 100, "unit": "%"}, {"measurement": "time of death (mean±SD)", "setting": "CD1 mice; 14 days", "value": "65 ± 58", "unit": "h"}, {"measurement": "time of death (range)", "setting": "CD1 mice; 14 days", "value": "18 to 144", "unit": "h"}]}
{"smiles": "CC(C)(C)NC(=O)[C@@H]1C[C@@H]2CCCC[C@@H]2CN1C[C@@H](O[N+](=O)[O-])[C@H](Cc1ccccc1)NC(=O)[C@H](CC(N)=O)NC(=O)c1ccc2ccccc2n1", "note": "[Saq-NO2, nitric ester of Saquinavir]", "values": [{"measurement": "cyclin D3 expression", "setting": "C6 cells [1]", "value": "not considerably changed"}, {"measurement": "p53 expression", "setting": "C6 cells [1]", "value": "much higher extent than Saq"}, {"measurement": "cells able to proliferate (divided)", "setting": "C6 cells [2]", "value": "less than 10%"}, {"measurement": "cyclin D3 expression", "setting": "B16 cells", "value": "not considerably changed"}, {"measurement": "p53 expression", "setting": "B16 cells", "value": "much higher extent than Saq"}]}
